{"source": "patent US11724987B2", "about": "“Compositions and methods of treating retinal disease” (Aldeyra Therapeutics, Inc., priority 2005, dated 2023)", "key": {"[1]": {"test": "NMR analysis of RAL reactions (Schiff base condensation and ring formation)", "details": "for tau (minutes) condense: Schiff base condensation with RAL; for tau (minutes) ring: ring formation after condensation with RAL"}, "[2]": {"details": "vendor value; cited from earlier work"}, "dark adapted rats": {"test_system": "dark adapted rats", "test": "ERG analysis of dark adaptation, dose ranging protocol", "format": "in vivo, rat", "details": "i.p.", "method": "Dark adaptation is the recovery of visual sensitivity following exposure to light. Dark adaptation has multiple components including both fast (neuronal) processes and slow (photochemical) process. Regeneration of visual pigment is related to the slow photochemical process. Dark adaptation rates are measured for several reasons. Night blindness results from a failure to dark adapt (loss of visual light sensitivity). It is possible to find a safe dose for night vision by measuring drug effects on dark adapted visual light sensitivity.\nAn electroretinogram (ERG) is used measure dark adaptation under normal vs. drug conditions. ERG is the measurement of the electric field potential emitted by retinal neurons during their response to an experimentally defined light stimulus. More specifically, ERG measures retinal field potentials at the cornea after a flash of light (e.g., 50 ms). Field strengths are 10^2 to 10^3 microvolts, originating in retinal cells.\nIn a typical ERG analysis of dark adaptation experiment, every rat is dark adapted for hours to reach a consistent state of light sensitivity. […]\nThe ERG measurement is taken after a specific duration of post-bleach dark recovery (e.g., 30 min) determined previously by kinetic analysis (see FIGS. 6a and 6b). […]"}, "human retinal vision": {"test_system": "human retinal vision", "details": "human occupational exposure, absorbed by the skin; cited from earlier work"}, "[3]": {"details": "negative control; cited from earlier work"}}, "data": [{"smiles": "CC(C)(O)c1ccccc1N", "note": "[Compound 8]", "values": [{"measurement": "tau (minutes) condense", "setting": "[1]", "value": 122, "unit": "min"}, {"measurement": "tau (minutes) ring", "setting": "[1]", "value": 109, "unit": "min"}]}, {"smiles": "Nc1nccs1", "note": "[Compound 3]", "values": [{"measurement": "calculated logP vendor", "setting": "[2]", "value": 0.8}]}, {"smiles": "CCOC(=O)c1csc(N)n1", "note": "[Compound 1]", "values": [{"measurement": "calculated logP vendor", "setting": "[2]", "value": 1.2}]}, {"smiles": "CC(C)(O)c1nc2ccc(Cl)cc2cc1N", "note": "[Compound 9]", "values": [{"measurement": "tau (minutes) condense", "setting": "[1]", "value": 320, "unit": "min"}, {"measurement": "tau (minutes) ring", "setting": "[1]", "value": 568, "unit": "min"}]}, {"smiles": "CCOC(=O)c1cccc(N)c1", "note": "[Compound 6, tricaine methane sulfonate]", "values": [{"measurement": "ERG light sensitivity of dark adapted rats", "setting": "dark adapted rats; dose ranging, FIG. 7", "value": "lowers light sensitivity of dark adapted rats in a dose dependent manner"}, {"measurement": "duration of effect on vision", "setting": "dark adapted rats; rats, ERG", "value": "decreases after 3 hours"}, {"measurement": "calculated logP vendor", "setting": "[2]", "value": 1.8}, {"measurement": "effect on night vision", "setting": "human retinal vision", "value": "attenuates night vision reversibly"}]}, {"smiles": "CCN(CC)CC(=O)Nc1c(C)cccc1C", "note": "[lidocaine]", "values": [{"measurement": "Schiff base formation", "setting": "[3]", "value": "does not form a Schiff base"}]}, {"smiles": "COC(=O)c1nc(N)sc1Cl", "note": "[Compound 2]", "values": [{"measurement": "calculated logP vendor", "setting": "[2]", "value": 1.3}]}, {"smiles": "CCOC(=O)Cc1csc(N)n1", "note": "[Compound 4]", "values": [{"measurement": "calculated logP vendor", "setting": "[2]", "value": 1.4}]}]}
